Test results reported in the supplement of paper PMC12463676, “Small-molecule dissolution of stress granules by redox modulation benefits ALS models” (Nature Chemical Biology, 2025).

Compound: NC(=O)CCCCC1CCSS1 [lipoamide]
Experiment: thermal stability z-score vs DMSO; higher = more thermally stabilized by treatment
Conditions: HeLa; lipoamide concentration 100 µM; arsenate co-treatment: 1 mM arsenate 1 h
Experimental: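 Cellular thermal proteome profiling in HeLa cells. Cells were treated with 100 µM lipoamide for 1 h, with or without 1 mM arsenate for a further 1 h, then heated to ten temperatures (37-66.3 °C), and soluble protein was quantified by TMT mass spectrometry relative to 0.1% DMSO controls. The thermal stability score (sum of log2 fold changes minus the abundance score) was transformed to a z-score; mean of n = 3 experiments.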
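Also: each temperature applied for 3 min, abundance score taken as mean log2 fold change at the two lowest temperatures, z-score obtained by mean subtraction and division by SD.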

Sequence of UniProt Q8N1G4 (Q8N1G4 whole entry): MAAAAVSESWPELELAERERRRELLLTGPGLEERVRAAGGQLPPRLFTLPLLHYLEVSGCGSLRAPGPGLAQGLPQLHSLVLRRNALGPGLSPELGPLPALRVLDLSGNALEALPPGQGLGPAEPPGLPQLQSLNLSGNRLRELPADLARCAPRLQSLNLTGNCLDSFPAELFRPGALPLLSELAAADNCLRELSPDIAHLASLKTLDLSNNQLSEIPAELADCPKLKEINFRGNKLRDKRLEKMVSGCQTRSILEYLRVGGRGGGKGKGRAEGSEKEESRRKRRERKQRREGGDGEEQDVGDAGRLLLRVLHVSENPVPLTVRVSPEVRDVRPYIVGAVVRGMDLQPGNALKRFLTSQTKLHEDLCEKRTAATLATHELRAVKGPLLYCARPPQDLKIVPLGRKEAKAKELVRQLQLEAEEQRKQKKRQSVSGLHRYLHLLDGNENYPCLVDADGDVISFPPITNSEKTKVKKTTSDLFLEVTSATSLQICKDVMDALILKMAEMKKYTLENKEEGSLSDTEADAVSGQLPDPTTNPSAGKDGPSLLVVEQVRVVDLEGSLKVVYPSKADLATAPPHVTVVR
Sequence of UniProt P48739 (P48739 whole entry): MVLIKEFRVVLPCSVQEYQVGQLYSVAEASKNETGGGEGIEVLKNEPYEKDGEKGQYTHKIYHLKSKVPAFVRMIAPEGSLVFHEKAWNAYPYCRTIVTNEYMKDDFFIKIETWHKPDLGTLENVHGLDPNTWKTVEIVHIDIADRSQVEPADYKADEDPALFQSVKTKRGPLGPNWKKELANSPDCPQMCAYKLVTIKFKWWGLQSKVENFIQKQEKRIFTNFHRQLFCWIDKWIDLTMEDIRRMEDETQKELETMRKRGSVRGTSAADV
Sequence of UniProt Q5VWJ9 (Q5VWJ9 whole entry): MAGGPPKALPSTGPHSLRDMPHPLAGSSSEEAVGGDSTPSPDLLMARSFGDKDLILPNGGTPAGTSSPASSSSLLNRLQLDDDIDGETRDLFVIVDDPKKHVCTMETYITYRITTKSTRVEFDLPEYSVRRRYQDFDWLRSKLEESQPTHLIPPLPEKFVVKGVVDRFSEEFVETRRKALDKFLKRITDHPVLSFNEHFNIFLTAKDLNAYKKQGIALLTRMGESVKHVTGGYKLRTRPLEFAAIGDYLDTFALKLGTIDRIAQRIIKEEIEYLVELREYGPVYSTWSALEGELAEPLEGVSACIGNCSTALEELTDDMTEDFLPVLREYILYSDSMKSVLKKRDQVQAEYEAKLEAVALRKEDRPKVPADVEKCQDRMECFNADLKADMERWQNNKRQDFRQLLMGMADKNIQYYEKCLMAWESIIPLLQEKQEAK
Sequence of UniProt Q9BUR4 (Q9BUR4 whole entry): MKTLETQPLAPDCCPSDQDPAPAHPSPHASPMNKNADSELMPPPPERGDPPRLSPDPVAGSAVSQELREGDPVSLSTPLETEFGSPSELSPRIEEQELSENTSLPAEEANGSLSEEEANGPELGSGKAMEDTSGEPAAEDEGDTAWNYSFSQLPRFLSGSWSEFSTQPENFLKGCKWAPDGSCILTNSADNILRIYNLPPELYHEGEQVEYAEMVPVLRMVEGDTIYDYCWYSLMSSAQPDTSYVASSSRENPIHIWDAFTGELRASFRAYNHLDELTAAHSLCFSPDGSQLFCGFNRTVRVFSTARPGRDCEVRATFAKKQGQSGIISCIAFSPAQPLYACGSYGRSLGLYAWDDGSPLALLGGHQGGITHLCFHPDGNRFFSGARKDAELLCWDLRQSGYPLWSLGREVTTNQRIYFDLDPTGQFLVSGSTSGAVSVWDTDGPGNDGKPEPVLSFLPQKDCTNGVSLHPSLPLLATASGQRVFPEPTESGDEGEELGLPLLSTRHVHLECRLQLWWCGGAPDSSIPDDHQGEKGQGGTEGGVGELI
Sequence of UniProt Q9UPN6 (Q9UPN6 whole entry): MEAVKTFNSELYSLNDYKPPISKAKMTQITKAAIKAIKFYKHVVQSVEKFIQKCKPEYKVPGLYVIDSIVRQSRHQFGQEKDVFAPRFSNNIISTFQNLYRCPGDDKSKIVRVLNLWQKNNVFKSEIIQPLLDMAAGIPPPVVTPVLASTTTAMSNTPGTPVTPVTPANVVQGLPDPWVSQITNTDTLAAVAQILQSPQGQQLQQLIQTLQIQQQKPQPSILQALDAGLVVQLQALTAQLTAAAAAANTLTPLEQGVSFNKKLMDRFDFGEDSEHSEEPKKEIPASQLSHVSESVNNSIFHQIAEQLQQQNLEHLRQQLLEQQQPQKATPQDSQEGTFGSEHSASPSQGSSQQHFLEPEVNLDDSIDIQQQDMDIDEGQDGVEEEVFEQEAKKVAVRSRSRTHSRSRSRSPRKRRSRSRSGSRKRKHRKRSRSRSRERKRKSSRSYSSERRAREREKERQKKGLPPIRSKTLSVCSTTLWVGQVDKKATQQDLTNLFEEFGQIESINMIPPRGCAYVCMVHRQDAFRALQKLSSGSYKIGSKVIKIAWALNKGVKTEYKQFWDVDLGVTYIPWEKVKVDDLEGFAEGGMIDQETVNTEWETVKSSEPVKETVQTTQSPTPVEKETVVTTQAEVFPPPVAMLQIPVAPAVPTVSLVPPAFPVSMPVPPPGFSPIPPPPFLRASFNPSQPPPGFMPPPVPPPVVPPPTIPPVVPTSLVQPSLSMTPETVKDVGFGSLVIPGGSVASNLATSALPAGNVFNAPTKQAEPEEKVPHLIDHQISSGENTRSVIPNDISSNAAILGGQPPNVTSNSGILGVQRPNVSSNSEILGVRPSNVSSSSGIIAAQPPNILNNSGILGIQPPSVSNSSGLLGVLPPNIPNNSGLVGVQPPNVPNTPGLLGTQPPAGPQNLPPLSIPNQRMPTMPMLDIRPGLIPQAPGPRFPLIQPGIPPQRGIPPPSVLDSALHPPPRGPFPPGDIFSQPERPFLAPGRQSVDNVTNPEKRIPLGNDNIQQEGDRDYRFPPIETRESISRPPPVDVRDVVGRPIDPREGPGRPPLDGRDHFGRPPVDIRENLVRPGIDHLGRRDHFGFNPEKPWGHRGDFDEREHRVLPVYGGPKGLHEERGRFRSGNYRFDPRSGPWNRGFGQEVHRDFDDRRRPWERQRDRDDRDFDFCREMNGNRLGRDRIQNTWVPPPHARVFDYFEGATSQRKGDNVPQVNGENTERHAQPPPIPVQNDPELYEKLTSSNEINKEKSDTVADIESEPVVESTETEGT
Sequence of UniProt Q12959 (Q12959 whole entry, looked up): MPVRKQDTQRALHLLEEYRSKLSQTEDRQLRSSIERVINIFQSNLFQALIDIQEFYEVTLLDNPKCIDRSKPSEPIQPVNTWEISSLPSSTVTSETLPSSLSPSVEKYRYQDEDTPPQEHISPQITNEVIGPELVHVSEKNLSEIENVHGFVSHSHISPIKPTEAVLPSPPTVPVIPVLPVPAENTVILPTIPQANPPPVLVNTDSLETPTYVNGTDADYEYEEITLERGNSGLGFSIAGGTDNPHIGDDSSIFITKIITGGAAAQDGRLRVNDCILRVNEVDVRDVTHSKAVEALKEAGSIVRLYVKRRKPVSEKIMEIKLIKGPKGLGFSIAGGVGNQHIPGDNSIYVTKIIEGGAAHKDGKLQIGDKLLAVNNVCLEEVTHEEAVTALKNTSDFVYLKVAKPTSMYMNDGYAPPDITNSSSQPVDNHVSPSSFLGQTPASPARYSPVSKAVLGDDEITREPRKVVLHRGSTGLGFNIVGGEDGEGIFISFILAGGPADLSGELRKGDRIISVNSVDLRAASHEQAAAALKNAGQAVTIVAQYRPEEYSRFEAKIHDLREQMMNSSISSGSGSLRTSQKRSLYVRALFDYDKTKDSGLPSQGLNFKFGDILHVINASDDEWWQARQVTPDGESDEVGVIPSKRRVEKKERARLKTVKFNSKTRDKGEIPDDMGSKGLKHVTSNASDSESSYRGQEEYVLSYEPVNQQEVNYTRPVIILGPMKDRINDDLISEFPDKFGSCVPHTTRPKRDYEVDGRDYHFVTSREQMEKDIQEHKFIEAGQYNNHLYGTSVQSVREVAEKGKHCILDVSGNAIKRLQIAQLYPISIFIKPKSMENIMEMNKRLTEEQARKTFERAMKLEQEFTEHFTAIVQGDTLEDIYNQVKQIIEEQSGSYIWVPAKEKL
Sequence of UniProt Q8NE71 (Q8NE71 whole entry): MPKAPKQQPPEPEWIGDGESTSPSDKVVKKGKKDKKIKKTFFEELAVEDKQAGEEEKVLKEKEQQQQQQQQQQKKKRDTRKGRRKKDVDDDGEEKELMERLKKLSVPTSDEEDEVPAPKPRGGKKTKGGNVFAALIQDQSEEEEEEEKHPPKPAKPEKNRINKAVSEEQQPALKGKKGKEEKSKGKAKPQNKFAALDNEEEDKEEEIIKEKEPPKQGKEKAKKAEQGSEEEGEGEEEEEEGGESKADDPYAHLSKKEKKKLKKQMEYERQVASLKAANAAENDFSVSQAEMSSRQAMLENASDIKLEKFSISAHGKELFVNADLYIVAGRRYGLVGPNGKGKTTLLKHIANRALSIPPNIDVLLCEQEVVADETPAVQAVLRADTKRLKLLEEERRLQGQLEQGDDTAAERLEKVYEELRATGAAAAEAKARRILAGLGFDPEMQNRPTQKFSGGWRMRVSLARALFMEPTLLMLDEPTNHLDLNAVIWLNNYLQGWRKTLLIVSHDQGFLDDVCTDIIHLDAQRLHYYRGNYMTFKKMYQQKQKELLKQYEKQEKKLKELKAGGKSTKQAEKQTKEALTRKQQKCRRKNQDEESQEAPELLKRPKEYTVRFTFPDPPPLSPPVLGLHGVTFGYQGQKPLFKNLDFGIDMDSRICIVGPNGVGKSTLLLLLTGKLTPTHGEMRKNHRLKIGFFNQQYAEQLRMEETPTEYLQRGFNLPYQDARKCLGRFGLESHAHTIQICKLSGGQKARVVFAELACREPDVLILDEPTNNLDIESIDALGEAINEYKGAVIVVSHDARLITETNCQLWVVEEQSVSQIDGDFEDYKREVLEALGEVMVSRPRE
Sequence of UniProt P17568 (P17568 whole entry): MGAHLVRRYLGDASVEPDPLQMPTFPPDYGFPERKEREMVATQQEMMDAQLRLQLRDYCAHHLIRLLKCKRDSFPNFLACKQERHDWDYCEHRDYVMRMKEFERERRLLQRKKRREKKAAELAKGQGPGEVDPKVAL

Target | thermal stability z-score
DLG1 (UniProt Q12959) | 0.111
HACD1 (UniProt B0YJ81) | -0.754
LRRC47 (UniProt Q8N1G4) | 0.175
ISG20 (UniProt Q96AZ6) | 0.189
ABCF1 (UniProt Q8NE71) | -0.384
GATAD2A (UniProt Q86YP4) | -0.0451
NDUFB7 (UniProt P17568) | -0.619
LIG3 (UniProt P49916) | -0.0256
CD97 (UniProt P48960) | 0.325
PRNP | 0.0235
RNF220 (UniProt Q5VTB9) | -0.19
GDPGP1 (UniProt Q6ZNW5) | -0.332
POLR3A (UniProt O14802) | 0.0126
ZMPSTE24 (UniProt O75844) | 0.105
BAG2 (UniProt O95816) | 0.187
MTRF1L (UniProt Q9UGC7) | -1.57
MRPL43 (UniProt Q8N983) | -0.191
TPM3 (UniProt P06753) | 0.676
RAB34 | 0.732
DOHH (UniProt Q9BU89) | -0.0847
ABCE1 (UniProt P61221) | 0.0869
MRPS12 (UniProt O15235) | -0.367
SCAF8 (UniProt Q9UPN6) | -0.0718
PITPNB (UniProt P48739) | -0.0644

Target | thermal stability z-score
SNX30 (UniProt Q5VWJ9) | -0.254
IFIT2 (UniProt P09913) | -0.00168
LAMTOR1 (UniProt Q6IAA8) | 1.14
TPBG (UniProt Q13641) | -0.727
SNX15 (UniProt Q9NRS6) | -0.412
RAB8B (UniProt Q92930) | 0.327
NFS1 (UniProt Q9Y697) | -0.356
EEF1D (UniProt P29692) | 0.303
ESYT2 (UniProt A0FGR8) | -0.934
WRAP53 (UniProt Q9BUR4) | -0.113
CMSS1 (UniProt Q9BQ75) | 0.27
DYNC2H1 (UniProt Q8NCM8) | -0.15
TMEM206 (UniProt Q9H813) | 0.109
RALGPS2 (UniProt Q86X27) | -0.0453
FNBP1 (UniProt Q96RU3) | 0.146
ZW10 (UniProt O43264) | -0.0261
NAF1 (UniProt Q96HR8) | 0.316
ZFAND6 (UniProt Q6FIF0) | 0.56
EIF4E (UniProt P06730) | 0.236
KAT7 (UniProt O95251) | 0.116
APBB2 (UniProt Q92870) | 0.078
RIOK2 (UniProt Q9BVS4) | -0.0928
GAPVD1 (UniProt Q14C86) | -0.367
RARS (UniProt P54136) | -0.341

Target | thermal stability z-score
RPS14 (UniProt P62263) | 0.641
TGFBR1 (UniProt P36897) | -0.829
RTCA (UniProt O00442) | 0.213
EHMT2 (UniProt Q96KQ7) | 0.132
CORO7 (UniProt P57737) | 0.188
LMAN2L (UniProt Q9H0V9) | -2.57
CHURC1 (UniProt Q8WUH1) | -0.539
MAP7D3 (UniProt Q8IWC1) | -0.18
SH3BP5 (UniProt O60239) | 0.466
AARS (UniProt P49588) | -0.195
ABHD10 (UniProt Q9NUJ1) | 0.377
WDSUB1 (UniProt Q8N9V3) | 0.698
PA2G4 (UniProt Q9UQ80) | 0.127
CCDC53 (UniProt Q9Y3C0) | -0.425
IGSF3 (UniProt O75054) | 0.454
GLT8D1 (UniProt Q68CQ7) | -0.426
CHMP2B (UniProt Q9UQN3) | 0.562
C5ORF51 (UniProt A6NDU8) | -1
FBXW11 (UniProt Q9UKB1) | 0.162
SARS (UniProt P49591) | 1.63
CDK5RAP1 (UniProt Q96SZ6) | 0.128
MLH1 (UniProt P40692) | -0.0694
TMA16 (UniProt Q96EY4) | -0.345

Same assay, conditions: HeLa; lipoamide concentration 100 µM; arsenate co-treatment: none

Target | thermal stability z-score
DLG1 (UniProt Q12959) | -0.207
HACD1 (UniProt B0YJ81) | -1.15
LRRC47 (UniProt Q8N1G4) | 0.38
ISG20 (UniProt Q96AZ6) | 0.668
ABCF1 (UniProt Q8NE71) | -0.353
GATAD2A (UniProt Q86YP4) | -0.00448
NDUFB7 (UniProt P17568) | -0.28
LIG3 (UniProt P49916) | 0.0387
CD97 (UniProt P48960) | 0.346
PRNP | 0.239
RNF220 (UniProt Q5VTB9) | -0.015
GDPGP1 (UniProt Q6ZNW5) | -0.511
POLR3A (UniProt O14802) | -0.887
ZMPSTE24 (UniProt O75844) | -0.234
BAG2 (UniProt O95816) | 0.292
MTRF1L (UniProt Q9UGC7) | -0.343
MRPL43 (UniProt Q8N983) | 0.245
TPM3 (UniProt P06753) | 0.821

Target | thermal stability z-score
RAB34 | 0.783
DOHH (UniProt Q9BU89) | 0.18
ABCE1 (UniProt P61221) | 0.0991
MRPS12 (UniProt O15235) | 0.0698
SCAF8 (UniProt Q9UPN6) | -0.03
PITPNB (UniProt P48739) | 0.129
SNX30 (UniProt Q5VWJ9) | 0.144
IFIT2 (UniProt P09913) | -0.0988
LAMTOR1 (UniProt Q6IAA8) | 0.655
TPBG (UniProt Q13641) | -0.884
SNX15 (UniProt Q9NRS6) | 0.114
RAB8B (UniProt Q92930) | 0.127
NFS1 (UniProt Q9Y697) | -0.438
EEF1D (UniProt P29692) | 0.257
ESYT2 (UniProt A0FGR8) | -0.479
WRAP53 (UniProt Q9BUR4) | -0.15
CMSS1 (UniProt Q9BQ75) | 0.0303
